According to ChEMBL document CHEMBL1208764, “Morroniside cinnamic acid conjugate as an anti-inflammatory agent” (Bioorg Med Chem Lett, 2010):
Activity calls are given as the source filed them. The rule behind the calls is not given here.

How the values were obtained:
HUVEC [1] = test: Cytotoxicity against HUVEC assessed as LDH release at 10-1000 ug/ml after 2 hrs; assay type: cell-based; conditions: human
HUVEC [2] = test: Antiinflammatory activity in HUVEC assessed as inhibition of TNF-alpha-induced E-selection expression at 10-1000 ug/ml after 2 hrs by ELISA; assay type: functional, cell-based; conditions: Homo sapiens
HUVEC [3] = test: Antiinflammatory activity in HUVEC assessed as inhibition of TNF-alpha-induced E-selection expression after 2 hrs by ELISA; assay type: functional, cell-based; conditions: Homo sapiens

For `COC(=O)C1=CO[C@@H](O[C@@H]2O[C@H](CO)[C@@H](O)[C@H](O)[C@H]2O)[C@@H]2[C@H](C)O[C@@H](OC)C[C@H]12`, which Activity (HUVEC [1]) is on record?
The Activity was “Non-toxic”.

What about the inhibition (HUVEC [2]) of the same molecule?
Its inhibition is “inactive”.

`C[C@]1(OC(=O)/C=C/c2ccccc2)C[C@@H](O)[C@]2(O)C=CO[C@@H](O[C@@H]3O[C@H](CO)[C@@H](O)[C@H](O)[C@H]3O)[C@@H]21` [HARPAGOSIDE] was tested. Which IC50 (HUVEC [3]) did it give?
The IC50 was 88.2 µM.

For `COC(=O)C1=CO[C@@H](O[C@@H]2O[C@H](CO)[C@@H](O)[C@H](O)[C@H]2O)[C@@H]2[C@H](C)O[C@@H](O)C[C@H]12` [MORRONISIDE], which Activity (HUVEC [1]) is on record?
Its Activity is “Non-toxic”.

And the inhibition (HUVEC [2])?
Its inhibition is “inactive”.
